We go through six compounds from US4906639A, “Cycloalkanol esters of dihydrolysergic acid” (Eli Lilly and Company, priority 1989, dated 1990).

Counter-ions that a name gives are not always drawn.

One test has as its system 5HT2 receptors.
Test: not given
The following applies: mediated by 5HT2 receptors; Cohen I; cited from earlier work.
For the compound `CC(O)C(C)OC(=O)[C@@H]1C[C@@H]2c3cccc4c3c(cn4C(C)C)C[C@H]2N(C)C1` (stereo partly drawn) [LY53857, 1-isopropyl-6-methyl-8β-(1-methyl-2-hydroxy)propoxycarbonyl-5R-ergoline], the “antagonism of vascular contraction to serotonin” value was “potent antagonist”.

The target in another test is T1, 5HT2 receptors (Rattus norvegicus, UniProt P14842).
T1 construct: their external jugular veins and thoracic aortas dissected free of connective tissue; from tissue; host or cells: isolated external jugular vein of male Wistar rats
T1 sequence (P14842 whole entry): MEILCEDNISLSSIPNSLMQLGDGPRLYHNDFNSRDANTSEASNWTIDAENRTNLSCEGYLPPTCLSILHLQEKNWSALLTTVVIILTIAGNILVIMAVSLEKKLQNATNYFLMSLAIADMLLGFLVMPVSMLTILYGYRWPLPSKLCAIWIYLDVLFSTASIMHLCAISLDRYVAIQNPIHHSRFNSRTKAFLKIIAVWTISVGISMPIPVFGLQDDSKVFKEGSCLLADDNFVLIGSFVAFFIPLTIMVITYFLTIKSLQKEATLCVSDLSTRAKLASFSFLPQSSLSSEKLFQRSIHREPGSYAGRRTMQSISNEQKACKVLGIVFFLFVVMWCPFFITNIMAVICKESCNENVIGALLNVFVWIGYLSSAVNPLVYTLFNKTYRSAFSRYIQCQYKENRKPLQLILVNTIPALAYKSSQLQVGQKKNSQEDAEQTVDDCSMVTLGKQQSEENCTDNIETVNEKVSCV
Nature of the test: Apparent dissociation constants for 5HT2 receptors determined in the rat jugular vein (antagonism of contraction to serotonin). In kind it is cell-based, rat (male Wistar). The note with it: antagonist incubated one hour, agonist serotonin, 37° C., read-out: -log KB (apparent dissociation constant, negative logarithm) (converted). Here is the method:
An initial optimum resting force of 1 and 4 g was applied to the jugular vein and aorta, respectively. […] Exp. Ther., 205, 400 (1978). Alpha receptor antagonist activity was evaluated in the aorta.
Consider `CC(C)n1cc2c3c(cccc31)[C@H]1C[C@@H](C(=O)OC3CCCCC3)CN(C)[C@@H]1C2` [CH3, cyclohexyl, maleate, cyclohexyl 1-isopropyl-9,10-dihydrolysergate maleate], for which the antagonist equilibrium constant (Kb) was 2.14 nM. Still for that read-out and setting: with `CCCCN1C[C@H](C(=O)OC2CCCCC2)C[C@@H]2c3cccc4c3c(cn4C(C)C)C[C@H]21` [n-C4 H9, cyclohexyl, HCl, 1-Isopropyl-6-n-butyl-8β-cyclohexyloxycarbonyl ergoline hydrochloride] the figure was 39.8 nM; with `CCN1C[C@H](C(=O)OC2CCCCC2)C[C@@H]2c3cccc4c3c(cn4C(C)C)C[C@H]21` [C2 H5, cyclohexyl, HCl, 1-Isopropyl-6-ethyl-8β-cyclohexyloxycarbonylergoline], 15.5 nM; with `CCCN1C[C@H](C(=O)OC2CCCCC2)C[C@@H]2c3cccc4c3c(cn4C(C)C)C[C@H]21` [n-C3 H7, cyclohexyl, HCl], 85.1 nM. Still for that read-out and setting: with `CC(C)n1cc2c3c(cccc31)[C@H]1C[C@@H](C(=O)OC3CCC(=O)CC3)CN(C)[C@@H]1C2` [CH3,4-oxocyclohexyl, maleate, 4-Oxocyclohexyl 1-isopropyl-9,10-dihydrolysergate] the figure was 0.0977 nM.

As a reminder, the Kb is the affinity of an antagonist, worked out from how it opposes an agonist.
